Columns and labels:
Type in all cases: biochemical
human Tyro3 = target: T1, human Tyro3 (Homo sapiens, UniProt Q06418); assay: Kinase enzymatic activity assay (33P-radiolabeled phosphate transfer), Tyro3; conditions: recombinant human Tyro3 (455-end), poly(4:1 glu:tyr) substrate, 30 minutes
T1 construct: GST (N); made in house; host or cells: Sf9 insect cells (baculovirus)
T1 sequence (Q06418 455-890 limits assumed): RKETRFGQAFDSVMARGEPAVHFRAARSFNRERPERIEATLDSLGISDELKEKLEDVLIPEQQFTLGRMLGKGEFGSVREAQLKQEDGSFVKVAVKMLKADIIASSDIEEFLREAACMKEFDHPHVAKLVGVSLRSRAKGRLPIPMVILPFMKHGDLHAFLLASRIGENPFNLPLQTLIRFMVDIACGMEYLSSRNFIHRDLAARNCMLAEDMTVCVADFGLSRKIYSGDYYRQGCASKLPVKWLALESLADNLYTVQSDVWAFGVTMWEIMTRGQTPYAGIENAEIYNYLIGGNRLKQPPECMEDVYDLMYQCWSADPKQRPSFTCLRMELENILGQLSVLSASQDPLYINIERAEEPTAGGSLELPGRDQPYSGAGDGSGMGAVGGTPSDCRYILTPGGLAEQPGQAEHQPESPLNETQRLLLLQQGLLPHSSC
Outline: (§1)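 GST-tagged human Tyro3 (455-end), Axl (473-end) and Mer (578-872) from Sf9 cells, with poly(Glu:Tyr) 4:1 substrate, in MOPS pH 7.2 buffer with MgCl2. [33P]-ATP added from a 250 µM cocktail; reaction 30 min at room temperature, filter-captured counts, duplicates. IC50 derived from % inhibition over a compound serial dilution.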

human Axl = target: T2, human Axl (Homo sapiens, UniProt P30530); assay: Kinase enzymatic activity assay (33P-radiolabeled phosphate transfer), Axl; conditions: recombinant human Axl (473-end), poly(4:1 glu:tyr) substrate, 30 minutes
T2 construct: GST (N); made in house; host or cells: Sf9 insect cells (baculovirus)
T2 sequence (P30530 473-894 limits assumed): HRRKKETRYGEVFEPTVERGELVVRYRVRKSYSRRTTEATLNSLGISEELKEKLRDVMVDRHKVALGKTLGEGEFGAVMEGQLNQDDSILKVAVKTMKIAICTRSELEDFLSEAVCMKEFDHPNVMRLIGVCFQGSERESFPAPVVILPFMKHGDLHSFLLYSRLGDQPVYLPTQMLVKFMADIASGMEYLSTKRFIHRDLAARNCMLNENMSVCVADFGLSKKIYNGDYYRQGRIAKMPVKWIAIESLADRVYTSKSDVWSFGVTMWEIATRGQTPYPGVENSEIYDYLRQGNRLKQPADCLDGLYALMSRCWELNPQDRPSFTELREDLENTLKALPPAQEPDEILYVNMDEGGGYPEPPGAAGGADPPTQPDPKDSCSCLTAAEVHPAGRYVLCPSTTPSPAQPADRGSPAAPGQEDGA
Outline: as §1

human Mer = target: T3, human Mer (Homo sapiens, UniProt Q12866); assay: Kinase enzymatic activity assay (33P-radiolabeled phosphate transfer), Mer; conditions: recombinant human Mer (578-872), poly(4:1 glu:tyr) substrate, 30 minutes
T3 construct: GST (N); made in house; host or cells: Sf9 insect cells (baculovirus)
T3 sequence (Q12866 578-872): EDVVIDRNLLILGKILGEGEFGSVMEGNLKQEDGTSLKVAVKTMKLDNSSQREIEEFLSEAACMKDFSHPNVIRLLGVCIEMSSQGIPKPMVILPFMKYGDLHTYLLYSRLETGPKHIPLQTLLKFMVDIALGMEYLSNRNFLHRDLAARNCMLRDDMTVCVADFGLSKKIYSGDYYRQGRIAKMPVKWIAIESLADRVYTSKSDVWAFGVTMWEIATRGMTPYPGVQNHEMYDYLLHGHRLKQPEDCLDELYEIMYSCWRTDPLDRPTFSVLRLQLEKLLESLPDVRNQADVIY
Outline: as §1

| Structure (SMILES) | IC50 (human Tyro3) [µM] | IC50 (human Axl) [µM] | IC50 (human Mer) [µM] |
| --- | --- | --- | --- |
| FC(F)(F)c1csc(Nc2ncnc3cc(OCCCN4CCOCC4)cc(OC4CCOCC4)c23)n1 [Example 2.18, N-(7-(3-morpholinopropoxy)-5-((tetrahydro-2H-pyran-4-yl)oxy)quinazolin-4-yl)-4-(trifluoromethyl)thiazol-2-amine] | > 10 | 0.5 to 1 | 1 to 10 |
| Cc1cc(Nc2ncnc3cc(OCCCN4CCOCC4)cc(OC4CCOCC4)c23)on1 [Example 2.35, 3-methyl-N-(7-(3-morpholinopropoxy)-5-((tetrahydro-2H-pyran-4-yl)oxy)quinazolin-4-yl)isoxazol-5-amine] | > 10 | 1 to 10 | 1 to 10 |
| COC(=O)c1cccc(Oc2ncnc3cc(OCCCN4CCOCC4)cc(OC)c23)c1 [Example 2.26, methyl 3-((5-methoxy-7-(3-morpholinopropoxy)quinazolin-4-yl)oxy)benzoate] | 1 to 10 | > 10 | > 10 |
| CN1CCC(COc2cc(OC3CCOCC3)c3c(Nc4nnc(C(F)(F)F)s4)ncnc3c2)CC1 [Example 2.37, N-(7-((1-methylpiperidin-4-yl)methoxy)-5-((tetrahydro-2H-pyran-4-yl)oxy)quinazolin-4-yl)-5-(trifluoromethyl)-1,3,4-thiadiazol-2-amine] | > 10 | 1 to 10 | > 10 |
| CN(C)CCCN(C)c1cc(OC2CCOCC2)c2c(Nc3nc(C(F)(F)F)cs3)ncnc2c1 [Example 2.59, N^7-(3-(dimethylamino)-propyl)-N^7-methyl-5-((tetrahydro-2H-pyran-4-yl)oxy)-N^4-(4-(trifluoromethyl)thiazol-2-yl)quinazoline-4,7-diamine] | > 10 | 0.5 to 1 | > 10 |
| CN1CCC(COc2cc(OC3CCOCC3)c3c(Sc4nncs4)ncnc3c2)CC1 [Example 2.47, 2-((7-((1-methylpiperidin-4-yl)methoxy)-5-((tetrahydro-2H-pyran-4-yl)oxy)quinazolin-4-yl)thio)-1,3,4-thiadiazole] | 1 to 10 | < 0.5 | 1 to 10 |
| COc1cc(N2CCN(C)CC2)cc2ncnc(Nc3nc(C(F)(F)F)cs3)c12 [Example 2.25, N-(5-methoxy-7-(4-methylpiperazin-1-yl)quinazolin-4-yl)-4-(trifluoromethyl)thiazol-2-amine] | > 10 | 0.5 to 1 | > 10 |
| COc1cc(OCCCN2CCOCC2)cc2ncnc(Oc3cccc(C(=O)NCc4ccccc4)c3)c12 [Example 2.28, N-benzyl-3-((5-methoxy-7-(3-morpholinopropoxy)quinazolin-4-yl)oxy)benzamide] | > 10 | > 10 | > 10 |
| CN1CCC(COc2cc(OC3CCOCC3)c3c(Nc4ccon4)ncnc3c2)CC1 [Example 2.61, N-(7-((1-methylpiperidin-4-yl)methoxy)-5-((tetrahydro-2H-pyran-4-yl)oxy)-quinazolin-4-yl)isoxazol-3-amine] | 1 to 10 | < 0.5 | < 0.5 |
| COCCOc1cc(OCCN2CCN(C)CC2)cc2ncnc(Sc3cc(Cl)cc(Cl)c3)c12 [Example 4.2, 4-((3,5-dichlorophenyl)thio)-5-(2-methoxyethoxy)-7-(2-(4-methylpiperazin-1-yl)ethoxy)quinazoline] | 1 to 10 | 1 to 10 | > 10 |
| FC(F)(F)c1csc(Nc2ncnc3cc(OCCN4CCOCC4)cc(OC4CCOCC4)c23)n1 [Example 2.53, N-(7-(2-morpholinoethoxy)-5-((tetrahydro-2H-pyran-4-yl)oxy)quinazolin-4-yl)-4-(trifluoromethyl)thiazol-2-amine] | > 10 | 1 to 10 | > 10 |
| CN(C)CCOCCOc1cc(OC2CCOCC2)c2c(Nc3nc(C(F)(F)F)cs3)ncnc2c1 [Example 2.56, N-(7-(2-(2-(dimethylamino)ethoxy)ethoxy)-5-((tetrahydro-2H-pyran-4-yl)oxy)quinazolin-4-yl)-4-(trifluoromethyl)thiazol-2-amine] | > 10 | < 0.5 | 1 to 10 |
| COCCOc1cc(OCCN2CCN(C)CC2)cc2ncnc(Sc3ccc(Cl)cc3Cl)c12 [Example 4.4, 4-((2,4-dichlorophenyl)thio)-5-(2-methoxyethoxy)-7-(2-(4-methylpiperazin-1-yl)ethoxy)quinazoline] | 1 to 10 | 1 to 10 | > 10 |
| COCCN1CCN(c2cc(OC3CCOCC3)c3c(Nc4nc(C(F)(F)F)cs4)ncnc3c2)CC1 [Example 2.41, N-(7-(4-(2-methoxyethyl)piperazin-1-yl)-5-((tetrahydro-2H-pyran-4-yl)oxy)quinazolin-4-yl)-4-(trifluoromethyl)thiazol-2-amine] | > 10 | 1 to 10 | > 10 |
| CN1CCC(COc2cc(OC3CCOCC3)c3c(Nc4cc(C(F)(F)F)no4)ncnc3c2)CC1 [Example 2.58, N-(7-((1-methylpiperidin-4-yl)methoxy)-5-((tetrahydro-2H-pyran-4-yl)oxy)quinazolin-4-yl)-3-(trifluoromethyl)isoxazol-5-amine] | > 10 | 0.5 to 1 | 1 to 10 |
| CN1CCC(COc2cc(OC3CCOCC3)c3c(Nc4ncn[nH]4)ncnc3c2)CC1 [Example 8, 7-((1-methylpiperidin-4-yl)methoxy)-5-((tetrahydro-2H-pyran-4-yl)oxy)-N-(1H-1,2,4-triazol-5-yl)quinazolin-4-amine] | > 10 | > 10 | > 10 |

Continued, values first:

| IC50 (human Tyro3) [µM] | IC50 (human Axl) [µM] | IC50 (human Mer) [µM] | Structure (SMILES) |
| --- | --- | --- | --- |
| 0.5 to 1 | > 10 | 0.5 to 1 | COc1cc(OC2CCOCC2)c2c(Oc3ccc(F)cc3Cl)ncnc2c1 [Example 3.1, 4-(2-chloro-4-fluorophenoxy)-7-methoxy-5-((tetrahydro-2H-pyran-4-yl)oxy)quinazoline] |
| < 0.5 | < 0.5 | < 0.5 | CC(C)Oc1ncnc2cc(OCC3CCN(C)CC3)cc(OC3CCOCC3)c12 [Example 6, 4-isopropoxy-7-((1-methylpiperidin-4-yl)methoxy)-5-((tetrahydro-2H-pyran-4-yl)oxy)quinazoline] |
| 1 to 10 | > 10 | 1 to 10 | COC(=O)Cc1cccc(Oc2ncnc3cc(OCCCN4CCOCC4)cc(OC)c23)c1 [Example 2.27, methyl 2-(3-((5-methoxy-7-(3-morpholinopropoxy)quinazolin-4-yl)oxy)phenyl)acetate] |
| 1 to 10 | > 10 | 1 to 10 | COCCOCCOc1cc(OC2CCOCC2)c2c(Oc3ccc(F)cc3Cl)ncnc2c1 [Example 2.4, 4-(2-chloro-4-fluorophenoxy)-7-(2-(2-methoxyethoxy)ethoxy)-5-((tetrahydro-2H-pyran-4-yl)oxy)quinazoline] |
| < 0.5 | 1 to 10 | < 0.5 | CN(C)CCOCCOc1cc(OC2CCOCC2)c2c(Oc3ccc(F)cc3Cl)ncnc2c1 [Example 2.2, 2-(2-((4-(2-chloro-4-fluorophenoxy)-5-((tetrahydro-2H-pyran-4-yl)oxy)quinazolin-7-yl)oxy)ethoxy)-N,N-dimethylethanamine] |
| < 0.5 | < 0.5 | 1 to 10 | CN1CCN(CCOc2cc(OC3CCOCC3)c3c(Oc4ccccc4)ncnc3c2)CC1 [Example 3.2, 7-(2-(4-methylpiperazin-1-yl)ethoxy)-4-phenoxy-5-((tetrahydro-2H-pyran-4-yl)oxy)quinazoline] |
| < 0.5 | 0.5 to 1 | < 0.5 | Fc1ccc(Oc2ncnc3cc(OCCCN4CCOCC4)cc(OC4CCOCC4)c23)c(Cl)c1 [Example 2.5, 4-(3-((4-(2-chloro-4-fluorophenoxy)-5-((tetrahydro-2H-pyran-4-yl)oxy)quinazolin-7-yl)oxy)propyl)morpholine] |

— patent US9771333B2, “Quinazoline derivatives as TAM family kinase inhibitors” (SIGNALCHEM LIFESCIENCES CORP., priority 2013, dated 2017)
